Source: patent US12037344B2, “NLRP3 modulators” (INNATE TUMOR IMMUNITY, INC., priority 2018, dated 2024)
Like-named read-outs stand apart in the source and are kept apart here.

How the values were obtained:
THP-1 cells = assay: Measurement of IL-1β production, hTRF protocol (second alternative procedure), THP-1 cells; type: cell-based, human; details: human, read-out: NLRP3 hILIB EC50
Protocol: Measurement of IL-1β Production—hTRF Protocol (Second Alternative Procedure)
Serial dilutions of compounds in DMSO were added to low volume 384 well plates at 100 nl/well using an ECHO 550 acoustic dispenser (Labcyte) to achieve final starting concentration of 10 μM in assay.
THP-1 cells in RPMI (Gibco, 11875) media with 10% FBS at a density of 1×10^6 cell/ml in a T175 flask were treated with a final concentration of phorbol 12-myristate 13-acetate (PMA) (Sigma, P1585) of 50 ng/ml overnight at 37° C. at 5% CO2 for differentiation. Cells were harvested the next day after rinsing well with dPBS using 0.5% trypsin. A cell solution was prepared of 1×10^6 cells/ml for 50,000 cells in 50 μl/well in RPMI media with 2% FBS. Cells were plated using a multichannel pipette onto the compound dilutions in Greiner, 384 well, black clear bottom tissue culture treated plates (781090). The plates were incubated in 37° C. incubator at 5% CO2 for 2 hours.
After the 2 hour incubation, the cell plates were spun in the centrifuge for 5 minutes at 1200 rpm. Using the Felix (CyBio), 8 μl of the supernatant was transferred to 384 well, low volume, white proxy plates. (Perkin Elmer, 6008230). A human IL1beta hTRF kit was used to analyze the supernatant (CISBIO, 62HIL1BPEG). The kit instructions were followed for preparing the IL1Beta standard curve and then the antibodies from the kit were diluted 1:40 rather than 1:20 as kit instructed. Once combined, the antibodies were added across the plates, 5 μl/well. The plates were sealed and incubated at 4° C. overnight. The plates were then read on the Perkin Elmer EnVision at 665/615 nm using the hTRF laser.

TLR8 = target: T1, TLR8 (Homo sapiens, UniProt Q9NR97); assay: In vitro human TLR8 binding reporter assay (HEK-Blue, NF-kB/AP1-inducible SEAP); type: cell-based; details: activity range class, read-out: TLR8 Agonist EC50
T1 construct: human HEK-Blue cells co-expressing a TLR7 or TLR8 gene
T1 sequence (Q9NR97 27-1041): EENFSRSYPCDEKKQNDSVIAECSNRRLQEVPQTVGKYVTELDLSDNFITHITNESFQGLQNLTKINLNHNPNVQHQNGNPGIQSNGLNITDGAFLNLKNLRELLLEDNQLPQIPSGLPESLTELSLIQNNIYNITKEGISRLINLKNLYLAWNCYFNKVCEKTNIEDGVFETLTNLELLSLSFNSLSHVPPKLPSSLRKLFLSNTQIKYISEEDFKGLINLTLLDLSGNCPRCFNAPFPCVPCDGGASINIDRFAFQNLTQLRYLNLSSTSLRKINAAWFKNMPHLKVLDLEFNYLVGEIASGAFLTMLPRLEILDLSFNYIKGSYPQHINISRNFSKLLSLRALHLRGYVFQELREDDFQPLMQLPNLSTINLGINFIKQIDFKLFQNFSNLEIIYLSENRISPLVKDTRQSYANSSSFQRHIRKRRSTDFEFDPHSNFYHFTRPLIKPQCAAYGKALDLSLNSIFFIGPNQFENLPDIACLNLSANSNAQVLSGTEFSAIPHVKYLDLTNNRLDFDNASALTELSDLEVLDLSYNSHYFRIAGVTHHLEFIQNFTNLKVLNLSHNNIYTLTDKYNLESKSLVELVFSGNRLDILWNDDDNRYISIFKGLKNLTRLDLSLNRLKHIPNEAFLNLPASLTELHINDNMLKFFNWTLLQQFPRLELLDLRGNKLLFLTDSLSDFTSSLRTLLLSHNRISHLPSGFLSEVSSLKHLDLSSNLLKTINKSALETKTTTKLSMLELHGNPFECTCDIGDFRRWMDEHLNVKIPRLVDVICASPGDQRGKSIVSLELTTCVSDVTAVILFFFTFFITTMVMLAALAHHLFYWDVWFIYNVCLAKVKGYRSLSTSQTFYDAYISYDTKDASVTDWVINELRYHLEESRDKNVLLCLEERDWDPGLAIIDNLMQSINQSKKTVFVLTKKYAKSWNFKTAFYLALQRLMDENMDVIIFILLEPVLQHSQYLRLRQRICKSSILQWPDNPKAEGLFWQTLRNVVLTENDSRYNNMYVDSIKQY
Protocol: (§1) In Vitro Human TLR7 and TLR8 Binding Reporter Assays
(§2) Logarithmically-growing human HEK-Blue cells co-expressing a TLR7 or TLR8 gene and a NF-kB/AP1-inducible SEAP (secreted embryonic alkaline phosphatase; Invivogen, San Diego, CA) reporter gene are added to individual wells of a 384-well plate (15,000 cells per 20 μL per well) and maintained for 24 h at 37° C., 5% CO2. Test compounds or DMSO are distributed to separate wells the next day using acoustic liquid handling technology (100 nL per well) and cells are subsequently incubated for 18 h at 37° C., 5% CO2. Cellular SEAP production is measured using an Envision plate reader instrument thirty minutes after adding freshly-made Quanti-Blue reagent (prepared by following manufacturer instructions; Invivogen, San Diego, CA) to the HEK-Blue TLR Nf-kB-SEAP cell reactions. All EC50 values (half-maximal effective concentration) are determined using proprietary data analysis software. Normalized EC50 value=absolute value determined by setting 100% Ymax using a reference standard RLU (relative light unit) values from cells treated with 50 μM of the reference standard.

TLR7 = target: T2, TLR7 (Homo sapiens, UniProt Q9NYK1); assay: In vitro human TLR7 binding reporter assay (HEK-Blue, NF-kB/AP1-inducible SEAP); type: cell-based; details: activity range class, read-out: TLR7 Agonist EC50
T2 construct: human HEK-Blue cells co-expressing a TLR7 or TLR8 gene
T2 sequence (Q9NYK1 27-1049): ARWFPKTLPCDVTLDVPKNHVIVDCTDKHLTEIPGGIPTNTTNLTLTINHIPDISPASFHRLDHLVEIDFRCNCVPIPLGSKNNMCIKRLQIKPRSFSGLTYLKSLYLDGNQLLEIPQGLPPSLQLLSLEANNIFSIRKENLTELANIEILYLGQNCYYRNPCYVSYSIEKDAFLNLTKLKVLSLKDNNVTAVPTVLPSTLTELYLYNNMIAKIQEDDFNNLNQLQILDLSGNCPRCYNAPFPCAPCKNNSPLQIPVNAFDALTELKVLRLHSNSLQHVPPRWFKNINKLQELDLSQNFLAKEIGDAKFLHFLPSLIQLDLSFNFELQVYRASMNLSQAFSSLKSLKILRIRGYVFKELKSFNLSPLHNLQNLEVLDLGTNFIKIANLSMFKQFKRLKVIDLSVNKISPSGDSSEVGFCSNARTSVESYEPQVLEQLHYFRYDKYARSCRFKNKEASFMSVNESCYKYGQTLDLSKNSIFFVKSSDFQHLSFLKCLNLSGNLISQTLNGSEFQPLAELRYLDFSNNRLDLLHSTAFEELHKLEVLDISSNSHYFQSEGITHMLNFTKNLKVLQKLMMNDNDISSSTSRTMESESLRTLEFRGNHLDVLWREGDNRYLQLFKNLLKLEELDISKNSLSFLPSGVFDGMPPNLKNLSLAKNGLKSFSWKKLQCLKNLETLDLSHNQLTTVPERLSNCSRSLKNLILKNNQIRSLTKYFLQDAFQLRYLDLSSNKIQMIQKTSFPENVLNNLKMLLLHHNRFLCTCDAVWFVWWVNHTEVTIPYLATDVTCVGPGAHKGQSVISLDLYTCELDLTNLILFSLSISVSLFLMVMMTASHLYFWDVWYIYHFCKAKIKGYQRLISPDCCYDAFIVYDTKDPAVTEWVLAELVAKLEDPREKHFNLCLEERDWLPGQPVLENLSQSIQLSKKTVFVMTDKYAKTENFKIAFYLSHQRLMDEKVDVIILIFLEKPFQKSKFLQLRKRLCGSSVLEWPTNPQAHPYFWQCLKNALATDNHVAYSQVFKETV
Protocol: as §1, §2

[1] = Homo sapiens, THP-1, IL-1β production

EC50 (THP-1 cells; IL-1β production) [µM] | EC50 (TLR8) [µM] | EC50 (TLR7) [µM] | EC50 (THP-1 cells; [1]) [µM] | SMILES
1.13 | > 100 | > 100 | – | Nc1nc2cc(-c3cc[nH]n3)ccc2c2nn(C3CCCCC3O)cc12 (single isomer, unassigned) [Example 319]
– | > 100 | > 100 | 1.57 | Nc1nc2cc(-c3cc[nH]n3)ccc2c2nn(C3COCC3O)cc12 (single isomer, unassigned) [Example 324]
1.49 | > 100 | > 100 | – | Nc1nc2cc(-c3cc[nH]n3)ccc2c2nn(C3COCC3O)cc12 (single isomer, unassigned) [Example 325]
– | > 100 | > 100 | 0.7 | Nc1nc2cc(-c3cc[nH]n3)ccc2c2nn(CC3CCOC3)cc12 (single isomer, unassigned) [Example 327]
1.35 | > 100 | > 100 | – | Nc1nc2cc(-c3cc[nH]n3)ccc2c2nn(CC3CCOC3)cc12 (single isomer, unassigned) [Example 328]
– | > 100 | > 100 | 0.22 | COCC(C)n1cc2c(N)nc3cc(-c4cc[nH]n4)ccc3c2n1 (single isomer, unassigned) [Example 337]
0.39 | > 100 | > 100 | – | COCC(C)n1cc2c(N)nc3cc(-c4cc[nH]n4)ccc3c2n1 (single isomer, unassigned) [Example 338]
0.62 | > 100 | > 100 | – | Nc1nc2cc(-c3cc[nH]n3)ccc2c2nn(C3CCCC3O)cc12 (single isomer, unassigned) [Example 340]
– | > 100 | > 100 | 0.43 | Nc1nc2cc(-c3cc[nH]n3)ccc2c2nn(C3CCC(O)C3)cc12 (single isomer, unassigned) [Example 341]
0.34 | > 100 | > 100 | – | Nc1nc2cc(-c3cc[nH]n3)ccc2c2nn(C3CCC(O)C3)cc12 (single isomer, unassigned) [Example 342]
– | > 100 | > 100 | 1.02 | CC1(O)CCCC1n1cc2c(N)nc3cc(-c4cc[nH]n4)ccc3c2n1 (single isomer, unassigned) [Example 344]
2.03 | > 100 | > 100 | – | CC1(O)CCCC1n1cc2c(N)nc3cc(-c4cc[nH]n4)ccc3c2n1 (single isomer, unassigned) [Example 345]
0.65 | > 100 | > 100 | – | COC(C)Cn1cc2c(N)nc3cc(-c4cc[nH]n4)ccc3c2n1 (single isomer, unassigned) [Example 346]
0.3 | > 100 | > 100 | – | COC(C)Cn1cc2c(N)nc3cc(-c4cc[nH]n4)ccc3c2n1 (single isomer, unassigned) [Example 347]
– | > 100 | > 100 | 0.4 | Nc1nc2cc(-c3cc[nH]n3)ccc2c2nn(CC(O)CF)cc12 (single isomer, unassigned) [Example 376]
0.45 | > 100 | > 100 | – | Nc1nc2cc(-c3cc[nH]n3)ccc2c2nn(CC(O)CF)cc12 (single isomer, unassigned) [Example 377]
– | > 100 | > 100 | 0.64 | Nc1nc2cc(-c3cc[nH]n3)ccc2c2nn(CC(O)CC(F)(F)F)cc12 (single isomer, unassigned) [Example 378]
0.32 | > 100 | > 100 | – | Nc1nc2cc(-c3cc[nH]n3)ccc2c2nn(CC(O)CC(F)(F)F)cc12 (single isomer, unassigned) [Example 379]
– | > 100 | > 100 | 0.45 | Nc1nc2cc(-c3cc[nH]n3)ccc2c2cn(CCCO)nc12 [Example 1, 3-[4-amino-7-(1H-pyrazol-3-yl)-2H-pyrazolo[3,4-c]quinolin-2-yl]propan-1-ol]
– | 20 to 100 | 20 to 100 | 0.43 | Nc1nc2cc(-c3cc[nH]n3)ccc2c2cn(CCCOc3ccccc3)nc12 [Example 2, 2-(3-phenoxypropyl)-7-(1H-pyrazol-3-yl)-2H-pyrazolo[3,4-c]quinolin-4-amine]
– | > 100 | > 100 | 0.56 | Nc1nc2cc(-c3cc[nH]n3)ccc2c2cn(CCCOc3ccccn3)nc12 [Example 3, 7-(1H-pyrazol-3-yl)-2-[3-(pyridin-2-yloxy)propyl]-2H-pyrazolo[3,4-c]quinolin-4-amine]
– | > 100 | > 100 | 16.8 | Nc1nc2cc(-c3cc[nH]n3)ccc2c2cn(CCCn3ccccc3=O)nc12 [Example 4, 1-{3-[4-amino-7-(1H-pyrazol-3-yl)-2H-pyrazolo[3,4-c]quinolin-2-yl]propyl}-1,2-dihydropyridin-2-one]
